Results on 23 compounds are retold here after patent US9920017B2, “Heterocyclic compounds as pesticides” (BAYER CROPSCIENCE AKTIENGESELLSCHAFT, priority 2014, dated 2018).

Like-named read-outs stand apart in the source and are kept apart here.

One series has as its system Cooperia curticei. Put plainly: Cooperia curticei test. In kind it is in vivo. The note with it: 20 ppm; nematode larvae; after 5 days. How it is done:
(§1) Solvent: dimethyl sulphoxide
To produce an appropriate active ingredient formulation, 10 mg of active ingredient are mixed with 0.5 ml of dimethyl sulphoxide and the concentrate is diluted with “Ringer's solution” to the desired concentration.
Vessels containing the active ingredient formulation of the desired concentration are populated with about 40 nematode larvae (Cooperia curticei).
After 5 days, the kill in % is determined 100% means that all the larvae have been killed; 0% means that none of the larvae have been killed.

The nature of series [1]: Determination of log P values by HPLC (reversed-phase C18). In kind it is physicochemical. The note with it: for chromatographic logP: reversed-phase C18 HPLC column. How it is done:
1) Description of Method for Determination of the Log P Values ([…]) The log P values given in the table were determined in accordance with EEC Directive 79/831 Annex V.A8 by HPLC (High Performance Liquid Chromatography) using a reversed-phase column (C 18). Temperature: 55° C. […] Gradient: from 10% eluent A/90% eluent B to 95% eluent A/5% eluent B in 4.25 min. Calibration was effected with unbranched alkan-2-ones (having 3 to 16 carbon atoms) with known log P values (log P values determined on the basis of the retention times by linear interpolation between two successive alkanones). The lambda max values were determined in the maxima of the chromatographic signals using the UV spectra from 200 nm to 400 nm.

The next series concerns Meloidogyne incognita. Put plainly: Meloidogyne incognita test (MELGIN). In kind it is in vivo. As to conditions: 20 ppm; lettuce; after 14 days. The method, then: Meloidogyne incognita Test (MELGIN) Solvent: 125.0 parts by weight of acetone To produce a suitable active ingredient formulation, 1 part by weight of active ingredient is mixed with the stated amount of solvent and the concentrate is diluted with water to the desired concentration. Vessels are filled with sand, active ingredient solution, an egg/larvae suspension of the southern root-knot nematode (Meloidogyne incognita) and lettuce seeds. The lettuce seeds germinate and the plants develop. The galls develop on the roots. After 14 days, the nematicidal efficacy in % is determined by the formation of galls. 100% means that no galls were found; 0% means that the number of galls on the treated plants corresponds to the untreated control.

In a further series the test system is Boophilus microplus. Put plainly: Boophilus microplus injection test. In kind it is in vivo. The note with it: 20 μg/animal injected into engorged adult female cattle ticks; assessed after 7 days by laying of fertile eggs. The method, then: Boophilus microplus—Injection Test
as §1
To produce an appropriate active ingredient formulation, 10 mg of active ingredient are mixed with 0.5 ml of solvent and the concentrate is diluted with solvent to the desired concentration.
1 μl of the active ingredient solution is injected into the abdomen of 5 engorged adult female cattle ticks (Boophilus microplus). The animals are transferred into dishes and kept in a climate-controlled room.
Efficacy is assessed after 7 days by laying of fertile eggs. Eggs which are not visibly fertile are stored in a climate-controlled cabinet for about another 42 days until the larvae hatch. An efficacy of 100% means that none of the ticks has laid any fertile eggs; 0% means that all the eggs are fertile.

The subject of the next series is Lucilia cuprina. Kind of series: Lucilia cuprina test. The class given is in vivo. As to conditions: 100 ppm; L1 larvae; after 2 days. How it is done:
Lucilia cuprina Test Solvent: dimethyl sulphoxide To produce an appropriate active ingredient formulation, 10 mg of active ingredient are mixed with 0.5 ml of dimethyl sulphoxide, and the concentrate is diluted with water to the desired concentration. About 20 L1 larvae of the Australian sheep blowfly (Lucilia cuprina) are transferred into a test vessel containing minced horsemeat and the active ingredient preparation of the desired concentration. After 2 days, the kill in % is determined 100% means that all the larvae have been killed; 0% means that no larvae have been killed.

The test system of another series is Musca domestica. Put plainly: Musca domestica test. The class given is in vivo. As to conditions: 100 ppm; adult houseflies; after 2 days. How it is done: Musca domestica Test Solvent: dimethyl sulphoxide To produce an appropriate active ingredient formulation, 10 mg of active ingredient are mixed with 0.5 ml of dimethyl sulphoxide, and the concentrate is diluted with water to the desired concentration. Vessels containing a sponge treated with sugar solution and the active ingredient formulation of the desired concentration are populated with 10 adult houseflies (Musca domestica). After 2 days, the kill in % is determined 100% means that all of the flies have been killed; 0% means that none of the flies have been killed.

For the next series, the system named is Phaedon cochleariae. Kind of series: Phaedon cochleariae spray test (PHAECO). In kind it is in vivo. The note with it: 500 g/ha; Chinese cabbage leaf discs, larvae; after 7 days. The method, then: Phaedon cochleariae—Spray Test (PHAECO)
Solvent: 78.0 parts by weight of acetone • • 1.5 parts by weight of dimethylformamide
Emulsifier: alkylaryl polyglycol ether
To produce an appropriate active ingredient formulation, 1 part by weight of active ingredient is dissolved using the stated parts by weight of solvent and made up with water containing an emulsifier concentration of 1000 ppm until the desired concentration is attained. To produce further test concentrations, the preparation is diluted with emulsifier-containing water.
Discs of Chinese cabbage leaves (Brassica pekinensis) are sprayed with an active ingredient formulation of the desired concentration and, after drying, populated with larvae of the mustard beetle (Phaedon cochleariae).
After 7 days, the efficacy in % is determined 100% means that all the beetle larvae have been killed; 0% means that no beetle larvae have been killed.

The mark [2] stands for this setting: HPLC, reversed-phase C18, 55° C., final compounds table.
The mark [3] stands for this setting: HPLC-MS, preparation examples, read-out: log P (neutral).
The mark [4] stands for this setting: pH 3.4, HPLC-MS, preparation examples, read-out: log P.
[5] abbreviates: HPLC, reversed-phase C18, 55° C., final compounds table, read-out: log P neutral.

As to `O=C(Nc1ncn(-c2c(F)cc(F)cc2F)n1)c1ccccc1I` [Compound I-1-63], in the series with Cooperia curticei, the “efficacy (kill)” value was 100%. For the same compound, the “log P neutral” value in series [1] (setting [2]) came out at 2.00. Besides, the “nematicidal efficacy (formation of galls)” value (“nematicidal efficacy” for short) in the series with Meloidogyne incognita came to 100%.
The compound `O=C(Nc1ncn(-c2c(F)ccc(F)c2F)n1)c1ccccc1C(F)(F)F` [Compound I-1-57] came in with an efficacy with Boophilus microplus of 90%. Also, in the series on Cooperia curticei, the “efficacy (kill)” value was 100%. The “log P neutral” value in series [1] (setting [2]) is 2.10. Further, in the series with Meloidogyne incognita, the “nematicidal efficacy” value worked out at 100%.
In the case of `O=C(Nc1ncn(-c2c(F)cccc2I)n1)c1ccccc1C(F)(F)F` [Compound I-1-83], the “efficacy (kill)” value in the series on Cooperia curticei worked out at 80%. The “log P neutral” value in series [1] (setting [2]) amounted to 2.21. Also, the “nematicidal efficacy” value in the series on Meloidogyne incognita worked out at 100%.
For the compound `O=C(Nc1ncn(-c2c(F)ccc(F)c2F)n1)c1ccccc1I` [Compound I-1-59], in the series with Boophilus microplus, the efficacy came out at 100%. Further, the “efficacy (kill)” value in the series on Cooperia curticei was found to be 90%. Further, in series [1] (setting [2]), the “log P neutral” value was 2.03. The “nematicidal efficacy” value with Meloidogyne incognita came to 100%.
Take `O=C(Nc1ncn(-c2c(F)cccc2F)n1)c1c(F)cccc1C(F)(F)F` [Compound I-1-20]: in the series on Cooperia curticei, the “efficacy (kill)” value amounted to 100%. Moreover, in series [1] (setting [2]), the “log P neutral” value amounted to 2.04. In the series with Meloidogyne incognita, the “nematicidal efficacy” value was 100%.
Compound `O=C(Nc1ncn(-c2c(F)cccc2Br)n1)c1ccccc1C(F)(F)F` [Compound I-1-30, 2-Trifluoromethyl-N-[1-(2-bromo-6-fluorophenyl)-1H-1,2,4-triazol-3-yl]benzamide] returned an efficacy in the series with Boophilus microplus of 100%. Also, the “efficacy (kill)” value with Cooperia curticei turned out to be 80%. Besides, the chromatographic logP in series [1] (setting [3]) amounted to 2.15. Moreover, in the series on Meloidogyne incognita, the “nematicidal efficacy” value is reported as 100%.
In the case of `O=C(Nc1ncn(-c2c(Cl)cccc2Cl)n1)c1ccccc1C(F)(F)F` [Compound I-1-44], in the series on Boophilus microplus, the efficacy was found to be 90%. Besides, in series [1] (setting [2]), the “log P neutral” value was determined as 2.26. The “nematicidal efficacy” value with Meloidogyne incognita is 100%.
Consider `O=C(Nc1ncn(-c2c(F)cccc2C(F)(F)F)n1)c1ccccc1C(F)(F)F` [Compound I-1-26], for which, in the series with Cooperia curticei, the “efficacy (kill)” value turned out to be 90%. For the same compound, in series [1] (setting [2]), the “log P neutral” value worked out at 2.25. Also, the “nematicidal efficacy” value with Meloidogyne incognita was 100%.
Turning to `O=C(Nc1ncn(-c2c(F)cccc2I)n1)c1ccccc1I` [Compound I-1-85], the “efficacy (kill)” value with Cooperia curticei is reported as 80%. Also, the “log P neutral” value in series [1] (setting [2]) is listed as 2.15. Moreover, in the series on Meloidogyne incognita, the “nematicidal efficacy” value is reported as 100%.
In the series on Boophilus microplus, `O=C(Nc1ncn(-c2c(F)cccc2F)n1)c1ccccc1C(F)(F)F` [Compound I-1-11, 2-Trifluoromethyl-N-[1-(2,6-difluorophenyl)-1H-1,2,4-triazol-3-yl]benzamide] registered an efficacy of 100%. Further, the “efficacy (kill)” value stood at 100% in the series on Lucilia cuprina and 80% in the series on Musca domestica. Also, the chromatographic logP in series [1] (setting [4]) and in series [1] (setting [5]) was 1.97 throughout. Further, the “nematicidal efficacy” value in the series with Meloidogyne incognita amounted to 90%.
`O=C(Nc1ncn(-c2ccccc2Br)n1)c1ccccc1C(F)(F)F` [Compound I-1-70]: in the series on Cooperia curticei, the “efficacy (kill)” value came out at 80%. In series [1] (setting [2]), the “log P neutral” value came to 2.15. For the same compound, in the series with Meloidogyne incognita, the “nematicidal efficacy” value is given as 90%.
Regarding `O=C(Nc1ncn(-c2c(F)c(F)c(F)c(F)c2F)n1)c1ccccc1C(F)(F)F` [Compound I-1-65], the efficacy in the series with Boophilus microplus amounted to 100%. For the same compound, the “log P neutral” value in series [1] (setting [2]) amounted to 2.49.
In the series on Phaedon cochleariae, `O=C(Nc1nnn(-c2ccccc2)n1)c1ccccc1C(F)(F)F` [Compound I-2-3, N-(2-Phenyl-2H-tetrazol-5-yl)-2-(trifluoromethyl)benzamide] came in with an efficacy of 100%. The chromatographic logP in series [1] (setting [4]) and in series [1] (setting [5]) was 2.57 throughout.
For `O=C(Nc1ncn(-c2ccccc2OC(F)(F)F)n1)c1ccccc1C(F)(F)F` [Compound I-1-10], the efficacy with Boophilus microplus is reported as 100%. Besides, in series [1] (setting [2]), the “log P neutral” value is 2.51. The “nematicidal efficacy” value in the series with Meloidogyne incognita worked out at 100%.
For `O=C(Nc1ncn(-c2c(F)cccc2Br)n1)c1ccccc1Cl` [Compound I-1-31], the “log P neutral” value in series [1] (setting [2]) was determined as 1.95. Further, in the series on Meloidogyne incognita, the “nematicidal efficacy” value is reported as 100%.
On to `O=C(Nc1ncn(-c2c(F)cc(F)cc2F)n1)c1ccccc1C(F)(F)F` [Compound I-1-61], for which the “efficacy (kill)” value with Cooperia curticei is listed as 80%. Further, the “log P neutral” value in series [1] (setting [2]) is listed as 2.05. In addition, in the series on Meloidogyne incognita, the “nematicidal efficacy” value is listed as 100%.
`CCc1ccccc1C(=O)Nc1ncn(-c2c(F)cccc2C(F)(F)F)n1` [Compound I-1-29]: the “log P neutral” value in series [1] (setting [2]) was 2.39. The “nematicidal efficacy” value in the series on Meloidogyne incognita was 100%.
Regarding `O=C(Nc1ncn(-c2c(F)cccc2F)n1)c1ccccc1C(F)F` [Compound I-1-18], the efficacy with Boophilus microplus came to 80%; in the series with Phaedon cochleariae it was 83%. Further, the “log P neutral” value in series [1] (setting [2]) was found to be 1.92. For the same compound, the “nematicidal efficacy” value in the series on Meloidogyne incognita is given as 100%.
In the series on Phaedon cochleariae, `O=C(Nc1ncn(-c2c(F)cccc2F)n1)c1ncccc1C(F)(F)F` [Compound I-1-91] gave an efficacy of 100%. The “log P neutral” value in series [1] (setting [2]) stood at 1.82. For the same compound, in the series with Meloidogyne incognita, the “nematicidal efficacy” value was 100%.
Take `O=C(Nc1ncn(-c2c(F)cccc2C(F)(F)F)n1)c1ccccc1I` [Compound I-1-28, N-{1-[2-Fluoro-6-(trifluoromethyl)phenyl]-1H-1,2,4-triazol-3-yl}-2-iodobenzamide]: in the series on Cooperia curticei, the “efficacy (kill)” value amounted to 80%. The chromatographic logP in series [1] (setting [3]) was 2.21. The “nematicidal efficacy” value with Meloidogyne incognita is given as 100%.
In the case of `O=C(Nc1ncn(-c2c(Cl)cccc2Cl)n1)c1ccccc1Br` [Compound I-1-45], the “log P neutral” value in series [1] (setting [2]) is 2.09. In addition, the “nematicidal efficacy” value with Meloidogyne incognita is reported as 100%.
`O=C(Nc1ncn(-c2c(F)cccc2F)n1)c1nccnc1C(F)(F)F` [Compound I-1-24] had an efficacy in the series with Boophilus microplus of 100%. Further, the “efficacy (kill)” value is on record as 100% with Lucilia cuprina and 80% with Musca domestica. Besides, the “log P neutral” value in series [1] (setting [2]) is reported as 1.73. Further, the “nematicidal efficacy” value in the series on Meloidogyne incognita amounted to 100%.
`O=C(Nc1ncn(-c2c(F)cccc2Cl)n1)c1ccccc1C(F)(F)F` [Compound I-1-33]: the efficacy with Boophilus microplus and in the series with Phaedon cochleariae was 100% in each case. In the series on Cooperia curticei, the “efficacy (kill)” value is 100%. Further, in series [1] (setting [2]), the “log P neutral” value came to 2.10. The “nematicidal efficacy” value in the series on Meloidogyne incognita was found to be 100%.
